Measured values from PMC7872314, “Modeling Bioavailable Concentrations in Zebrafish Cell Lines and Embryos Increases the Correlation of Toxicity Potencies across Test Systems” (Environmental Science & Technology, 2020).
Where two headings read alike, the source gives them in different places.

Experiments:
[1] = system: ZF4 (fibroblasts) cell line; test: MTS assay (MTS/BCA multiplex), NAD(P)H metabolism; assay type: cell-based, zebrafish (Danio rerio); settings: Danio rerio, Fibroblast
[2] = system: ZFL (hepatocytes) cell line; test: cells; assay type: cell-based, zebrafish (Danio rerio); settings: Danio rerio, Hepatocyte
[3] = system: ZF4 (fibroblasts) cell line; test: BCA assay (MTS/BCA multiplex), protein amount; assay type: cell-based, zebrafish (Danio rerio); settings: Danio rerio, Fibroblast
[4] = system: ZFL (hepatocytes) cell line; test: cells; assay type: cell-based, zebrafish (Danio rerio); settings: Danio rerio, Hepatocyte; remark: listed apart in the source
[5] = system: ZF4 (fibroblasts) cell line; test: ATP assay (ATP/LDH multiplex), ATP metabolism; assay type: cell-based, zebrafish (Danio rerio); settings: Danio rerio, Fibroblast
[6] = system: ZFL (hepatocytes) cell line; test: cells; assay type: cell-based, zebrafish (Danio rerio); settings: Danio rerio, Hepatocyte; remark: listed apart in the source
[7] = system: ZF4 (fibroblasts) cell line; test: alamarBlue (AB) endpoint of AB/CFDA/NR multiplex, cellular respiration; assay type: cell-based, zebrafish (Danio rerio); settings: Danio rerio, Fibroblast
[8] = system: ZFL (hepatocytes) cell line; test: cells; assay type: cell-based, zebrafish (Danio rerio); settings: Danio rerio, Hepatocyte; remark: listed apart in the source
[9] = system: ZF4 (fibroblasts) cell line; test: CFDA endpoint of AB/CFDA/NR multiplex, membrane stability; assay type: cell-based, zebrafish (Danio rerio); settings: Danio rerio, Fibroblast
[10] = system: ZFL (hepatocytes) cell line; test: cells; assay type: cell-based, zebrafish (Danio rerio); settings: Danio rerio, Hepatocyte; remark: listed apart in the source
[11] = system: ZF4 (fibroblasts) cell line; test: Neutral red, absorbance (NRa), AB/CFDA/NR multiplex, lysosome stability; assay type: cell-based, zebrafish (Danio rerio); settings: Danio rerio, Fibroblast
[12] = system: ZFL (hepatocytes) cell line; test: cells; assay type: cell-based, zebrafish (Danio rerio); settings: Danio rerio, Hepatocyte; remark: listed apart in the source
[13] = system: ZF4 (fibroblasts) cell line; test: Neutral red, fluorescence (NRf), AB/CFDA/NR multiplex, lysosome stability; assay type: cell-based, zebrafish (Danio rerio); settings: Danio rerio, Fibroblast
[14] = system: ZFL (hepatocytes) cell line; test: cells; assay type: cell-based, zebrafish (Danio rerio); settings: Danio rerio, Hepatocyte; remark: listed apart in the source
zebrafish embryos [15] = test: animal or person; assay type: in vivo, zebrafish (Danio rerio); settings: for EC50: Danio rerio
ZF4 and ZFL cell lines = test: Cytotoxicity assays, all endpoints, both cell lines (mean/range); assay type: cell-based, zebrafish (Danio rerio); settings: 48 h, mean of all cytotoxicity endpoints (without LDH) in ZF4 and ZFL
[16] = system: zebrafish cell lines vs zebrafish embryo; test: Potency ratios IC50;x/EC50;x (cytotoxicity assays vs mFET); set-up: species or system zebrafish (Danio rerio)
zebrafish embryos [17] = system: zebrafish embryos; set-up: method as in earlier work; settings: nominal, cited from earlier work
[18] = system: diverse mammalian cell assay results; set-up: method as in https://comptox.epa.gov/dashboard/; settings: COMPTOX; ref https://comptox.epa.gov/dashboard/; read-out: median AC50; cited from earlier work
[19] = ref Comptox, PubChem or DrugBank; cited from earlier work

In the case of `COC(=O)Nc1nc2ccc(Sc3ccccc3)cc2[nH]1` [Fenbendazole, fenbendazole], the IC50 ([1]; MTS - ZF4, log10 of IC50, read-out: LogIC50 (converted)) is reported as 5840 nM, the IC50 ([1]; MTS - ZF4, read-out: IC50) is reported as 5840 nM and the IC50 ([1]; ZF4, 48 h exposure, nominal, log10, read-out: logIC50 (log10 IC50;nom) MTS (converted)) is reported as 5890 nM. For the same compound, the IC50 ([1]; ZF4, 48 h exposure, nominal, read-out: IC50;nom MTS) was 5840 nM, the IC50 ([2]; MTS - ZFL, log10 of IC50, read-out: LogIC50 (converted)) was 166 nM and the IC50 ([2]; MTS - ZFL, read-out: IC50) was 166 nM. For the same compound, the IC50 ([2]; ZFL, 48 h exposure, nominal, log10, read-out: logIC50 (log10 IC50;nom) MTS (converted)) was 166 nM, the IC50 ([2]; ZFL, 48 h exposure, nominal, read-out: IC50;nom MTS) was 166 nM and the IC50 ([3]; BCA - ZF4, log10 of IC50, read-out: LogIC50 (converted)) was 1150 nM. It also gave an IC50 ([3]; BCA - ZF4, read-out: IC50) of 1150 nM, an IC50 ([3]; ZF4, 48 h exposure, nominal, log10, read-out: logIC50 (log10 IC50;nom) BCA (converted)) of 1150 nM and an IC50 ([3]; ZF4, 48 h exposure, nominal, read-out: IC50;nom BCA) of 1150 nM. It also gave an IC50 ([4]; BCA - ZFL, log10 of IC50, read-out: LogIC50 (converted)) of 125 nM, an IC50 ([4]; BCA - ZFL, read-out: IC50) of 125 nM and an IC50 ([4]; ZFL, 48 h exposure, nominal, log10, read-out: logIC50 (log10 IC50;nom) BCA (converted)) of 126 nM. The IC50 ([4]; ZFL, 48 h exposure, nominal, read-out: IC50;nom BCA) was 125 nM, the IC50 ([5]; ATP - ZF4, log10 of IC50, read-out: LogIC50 (converted)) was 7490 nM and the IC50 ([5]; ATP - ZF4, read-out: IC50) was 7490 nM. It also gave an IC50 ([5]; ZF4, 48 h exposure, nominal, log10, read-out: logIC50 (log10 IC50;nom) ATP (converted)) of 7410 nM, an IC50 ([5]; ZF4, 48 h exposure, nominal, read-out: IC50;nom ATP) of 7490 nM and an IC50 ([6]; ATP - ZFL, log10 of IC50, read-out: LogIC50 (converted)) of 9850 nM. The IC50 ([6]; ATP - ZFL, read-out: IC50) was 9850 nM, the IC50 ([6]; ZFL, 48 h exposure, nominal, log10, read-out: logIC50 (log10 IC50;nom) ATP (converted)) was 9770 nM and the IC50 ([6]; ZFL, 48 h exposure, nominal, read-out: IC50;nom ATP) was 9850 nM. For the same compound, the IC50 ([7]; AB - ZF4, log10 of IC50, read-out: LogIC50 (converted)) was 3570 nM, the IC50 ([7]; AB - ZF4, read-out: IC50) was 3570 nM and the IC50 ([7]; ZF4, 48 h exposure, nominal, log10, read-out: logIC50 (log10 IC50;nom) AB (converted)) was 3550 nM. It also gave an IC50 ([7]; ZF4, 48 h exposure, nominal, read-out: IC50;nom AB) of 3570 nM, an IC50 ([8]; AB - ZFL, log10 of IC50, read-out: LogIC50 (converted)) of 985 nM and an IC50 ([8]; AB - ZFL, read-out: IC50) of 985 nM. It also gave an IC50 ([8]; ZFL, 48 h exposure, nominal, log10, read-out: logIC50 (log10 IC50;nom) AB (converted)) of 977 nM, an IC50 ([8]; ZFL, 48 h exposure, nominal, read-out: IC50;nom AB) of 985 nM and an IC50 ([9]; CFDA - ZF4, log10 of IC50, read-out: LogIC50 (converted)) of 49500 nM. The IC50 ([9]; CFDA - ZF4, read-out: IC50) was 49500 nM, the IC50 ([9]; ZF4, 48 h exposure, nominal, log10, read-out: logIC50 (log10 IC50;nom) CFDA (converted)) was 49000 nM and the IC50 ([9]; ZF4, 48 h exposure, nominal, read-out: IC50;nom CFDA) was 49500 nM. The IC50 ([10]; CFDA - ZFL, log10 of IC50, read-out: LogIC50 (converted)) was 21400 nM, the IC50 ([10]; CFDA - ZFL, read-out: IC50) was 21400 nM and the IC50 ([10]; ZFL, 48 h exposure, nominal, log10, read-out: logIC50 (log10 IC50;nom) CFDA (converted)) was 21400 nM. For the same compound, the IC50 ([10]; ZFL, 48 h exposure, nominal, read-out: IC50;nom CFDA) was 21400 nM, the IC50 ([11]; NR-abs - ZF4, log10 of IC50, read-out: LogIC50 (converted)) was 1550 nM and the IC50 ([11]; NR-abs - ZF4, read-out: IC50) was 1550 nM. The IC50 ([11]; ZF4, 48 h exposure, nominal, log10, read-out: logIC50 (log10 IC50;nom) NRa (converted)) was 1550 nM, the IC50 ([11]; ZF4, 48 h exposure, nominal, read-out: IC50;nom NRa) was 1550 nM and the IC50 ([11]; ZF4 cell line, NRa endpoint, nominal, read-out: IC50;nom) was 0.46 µg/mL. For the same compound, the IC50 ([12]; NR-abs - ZFL, log10 of IC50, read-out: LogIC50 (converted)) was 532 nM, the IC50 ([12]; NR-abs - ZFL, read-out: IC50) was 532 nM and the IC50 ([12]; ZFL, 48 h exposure, nominal, log10, read-out: logIC50 (log10 IC50;nom) NRa (converted)) was 537 nM. The IC50 ([12]; ZFL, 48 h exposure, nominal, read-out: IC50;nom NRa) was 532 nM, the IC50 ([13]; NR-fluo - ZF4, log10 of IC50, read-out: LogIC50 (converted)) was 10400 nM and the IC50 ([13]; NR-fluo - ZF4, read-out: IC50) was 10400 nM. It also gave an IC50 ([13]; ZF4, 48 h exposure, nominal, log10, read-out: logIC50 (log10 IC50;nom) NRf (converted)) of 10500 nM, an IC50 ([13]; ZF4, 48 h exposure, nominal, read-out: IC50;nom NRf) of 10400 nM and an IC50 ([14]; NR-fluo - ZFL, log10 of IC50, read-out: LogIC50 (converted)) of 584 nM. It also gave an IC50 ([14]; NR-fluo - ZFL, read-out: IC50) of 584 nM, an IC50 ([14]; ZFL, 48 h exposure, nominal, log10, read-out: logIC50 (log10 IC50;nom) NRf (converted)) of 589 nM and an IC50 ([14]; ZFL, 48 h exposure, nominal, read-out: IC50;nom NRf) of 584 nM. For the same compound, the “difference in toxicity (EC50;nom) between 48 hpf and 144 hpf” value (zebrafish embryos [15]; 48 hpf time point less sensitive than 144 hpf) was “approximately the same”, the “log EC50;nom (mFET)” value (zebrafish embryos [15]; 48 hpf, nominal, log10, listed as Fen) was -7.115 M and the EC50 (zebrafish embryos [15]; 48 hpf, nominal, log10, read-out: log EC50;nom (mFET) (converted)) was 77.6 nM. The EC50 (zebrafish embryos [15]; 48 hpf, nominal, read-out: EC50;nom (embryo)) was 0.02 µg/mL, the EC50 (zebrafish embryos [15]; read-out: EC50 48hpf) was 76.8 nM and the EC50 (zebrafish embryos [15]; read-out: EC50;nom (mFET)) was 76.8 nM. For the same compound, the IC50 (ZF4 and ZFL cell lines; Danio rerio, log10, read-out: Mean log IC50nom (converted)) was 2400 nM, the “Mean log IC50nom” value (ZF4 and ZFL cell lines; log10, listed as Fen) was -5.623 M and the “potency ratio IC50;nom/EC50;nom (median)” value ([16]; median over cytotoxicity endpoints, nominal, 48 h cells / 48 hpf mFET) was 33.3. The “difference in sensitivity between embryo (EC50;nom) and cells (IC50;nom)” value ([16]; nominal concentrations, higher potency in the mFET) was “two to three log-scales more sensitive in the mFET”, the EC50 (zebrafish embryos [17]; 144 hpf, converted) was 80.2 nM and the “logEC50 144 hpf” value (zebrafish embryos [17]; log10) was -7.0959 M. For the same compound, the AC50 [18] was 900 nM, the BCF [19] was 1.18E+03 and the Physiological charge [19] was 0. The “Water Solubility” value [19] was “insoluble”, the logKoa [19] was 9.49 and the logKow [19] was 3.21. For the same compound, the “pKa (Strongest Acidic)” value [19] was 9.59, the “pKa (Strongest Basic)” value [19] was 4.06 and the “w_solubility (water solubility)” value [19] was 26.7 µM.
